Results from patent US4250329A, “Carbonylation process” (priority 1979, dated 1981).
“And” between values parts separate entries of the source, which are not always exact repeats. Equal values may be shown once. Read-outs that look alike come from different tables or passages of the source.

Legend:
[1] = Hydroformylation of propylene; conditions: 133 °C
Source text: [table 17: the next 25 blocks are its lines as printed, fixed-width]

[2] = Carbonylation of methanol to methyl acetate; parameters: methyl acetate (drawing 15) produced: unit not given here; conditions: for methyl acetate (drawing 17): the values are: methyl acetate volume produced; for methyl acetate (drawing 15) produced / CH3 OH consumed: 20 hour; for % Conversion (Table II) / % Selectivity (Table II; additional product was dimethyl ether): 1000 psi
Experimental: (THF)4 Mg[Co(CO)3 P(C4 H9)3 ]2 +CH3 I catalyst system
Reaction conditions: 175° C., 1000 psi

[3] = Carbonylation of methanol to methyl acetate; conditions: 175° C.
[4] = Experimental: This conversion is run at elevated pressures, preferably from 1,500 to 3,000 psi. Reaction temperatures will range from 50° C. to 200° C., with a range of 100° C. to 150° C. preferred. Ratio of H2 to CO used will vary with reaction conditions; preferably a 1 to 1 ratio is maintained. The catalyst concentration will range from 0.01 to 20% based on the weight feed, with 0.05 to 10% preferred.
30 ml. of hexene-1, 20 ml. of benzene, and 0.3 gm. […] The bomb was heated to 140° C. and held until the reaction was complete.

[5] = cocatalyst 8.0 mmole, 90 hr, 1.0 mmole catalyst, 175° C., 1000 psi CO
[6] = cocatalyst 8.0 mmole, 19 hr, 1.0 mmole catalyst, 175° C., 1000 psi CO
[7] = CH3I 1.6 mmole, 18 hr, 175° C., 1000 psi CO, no reaction occurs
[8] = CH3I 4.0 mmole, 18 hr, 175° C., 1000 psi CO
[9] = CH3I 6.0 mmole, 18 hr, 175° C., 1000 psi CO
[10] = CH3I 8.0 mmole, 3.25 hr, 175° C., 4000 psig CO
[11] = CH3I 8.0 mmole, 18 hr, 175° C., 1000 psi CO
[12] = CH3I 12.0 mmole, 18 hr, 175° C., 1000 psi CO
[13] = CH3I 16.0 mmole, 18 hr, 175° C., 1000 psi CO
[14] = CH3I 48.0 mmole, 17 hr, 175° C., 1000 psi CO
[15] = cocatalyst 8.0 mmole, 18 hr, 1.0 mmole catalyst, 175° C., 1000 psi CO
[16] = catalyst 1.0 mmole, CH3I 8.0 mmole, 21 hour, 175° C.
[17] = catalyst 2.0 mmole, CH3I 8.0 mmole, 67 hour, 175° C.
[18] = 1500 psi 1:1 H2:CO, 140° C., 0.3 gm catalyst

[C-]#[O+].[Cl-].[Rh].c1ccc(P(c2ccccc2)c2ccccc2)cc1.c1ccc(P(c2ccccc2)c2ccccc2)cc1 [((C6 H5)3 P)2 Rh(CO)Cl]
t1/2 ([1]; 1n 2/k): 9.32 min
k (pseudo 1st order reaction rate constant) ([1]; 1000 psig CO/H2 50/50): 0.0744 min⁻¹
n-C4 H8 O (percent straight chain isomer) ([1]; 1000 psig CO/H2 50/50, benzene, 0.5 mmoles catalyst based on Rh): 56%

Ic1ccccc1 [C6 H5 I]
% Conversion to Methyl Acetate (Table III) [2, 5]: 25%
% Selectivity to Methyl Acetate (Table III) [2, 5]: 52%
methyl acetate (drawing 17) ([2]; cocatalyst 8.0 mmole, 1000 psi CO, 175° C., 90 hours): 22.3 mL

CBr [CH3 Br]
activity as cocatalyst [2]: inactive

CCI [CH3 CH2 I]
% Conversion to Methyl Acetate (Table III) [2, 6]: 20%
% Selectivity to Methyl Acetate (Table III) [2, 6]: 85%
methyl acetate (drawing 17) [2]: 17.5 mL

CI [CH3 I, methyl iodide]
% Conversion to Methyl Acetate (Table IV) [2, 7]: 0.0%
% Selectivity to Methyl Acetate (Table IV) [2, 7]: 0.0%
methyl acetate (drawing 15) produced ([2]; CH3I 1.6 mmole, 1.0 mmole catalyst, 1000 psi CO, 175° C.): 0.5
CH3 OH consumed ([2]; CH3I 1.6 mmole, 1000 psi CO, 175° C.): 1.2 mL
% Conversion to Methyl Acetate (Table IV) [2, 8]: 22%
% Selectivity to Methyl Acetate (Table IV) [2, 8]: 100%
% Conversion to Methyl Acetate (Table IV) [2, 9]: 24%
% Selectivity to Methyl Acetate (Table IV) [2, 9]: 100%
% Conversion to Methyl Acetate (Table IV) [2, 10]: 29%
% Selectivity to Methyl Acetate (Table IV) [2, 10]: 97%
% Conversion to Methyl Acetate (Table IV) [2, 11]: 24%
% Selectivity to Methyl Acetate (Table IV) [2, 11]: 85%
methyl acetate (drawing 15) produced ([2]; CH3I 8.0 mmole, 1.0 mmole catalyst, 1000 psi CO, 175° C.): 22.4
CH3 OH consumed ([2]; CH3I 8.0 mmole, 1000 psi CO, 175° C.): 30.0 mL
% Conversion to Methyl Acetate (Table IV) [2, 12]: 5.4%
% Selectivity to Methyl Acetate (Table IV) [2, 12]: 15%
% Selectivity to Methyl Acetate (Table IV) ([2]; CH3I 16.0 mmole, 4.25 hr, 175° C., 4000 psig CO): 74%
% Conversion to Methyl Acetate (Table IV) [2, 13]: 4.5%
% Selectivity to Methyl Acetate (Table IV) [2, 13]: 12%
methyl acetate (drawing 15) produced ([2]; CH3I 16.0 mmole, 1.0 mmole catalyst, 1000 psi CO, 175° C.): 4.5
CH3 OH consumed ([2]; CH3I 16.0 mmole, 1000 psi CO, 175° C., CH3OH is dehydrated to CH3OCH3): 45.0 mL
% Conversion to Methyl Acetate (Table IV) [2, 14]: 0.0%
% Selectivity to Methyl Acetate (Table IV) [2, 14]: 0.0%
conversion to CH3 OCH3 [2, 14]: 100%
methyl acetate (drawing 15) produced ([2]; CH3I 48.0 mmole, 1.0 mmole catalyst, 1000 psi CO, 175° C.): 1.2
CH3 OH consumed ([2]; CH3I 48.0 mmole, 1000 psi CO, 175° C., CH3OH is dehydrated to CH3OCH3): 90. ml
% Selectivity to Methyl Acetate (Table III) ([2]; cocatalyst 8.0 mmole, 3.25 hr, 1.0 mmole catalyst, 175° C., 4000 psi CO): 97%
% Conversion to Methyl Acetate (Table III) [2, 15]: 24%
% Selectivity to Methyl Acetate (Table III) [2, 15]: 85%
% Conversion to Methyl Acetate (Table III) ([2]; cocatalyst 16.0 mmole, 4.25 hr, 1.0 mmole catalyst, 175° C., 4000 psi CO): 25%
methyl acetate (drawing 17) [2]: 19.8 mL and 29.6 mL and 21.4 mL
% Conversion to Methyl Acetate (Table IV) ([3]; CH3I 16.0 mmole, 4.25 hr, 4000 psig CO): 25%
% Conversion to Methyl Acetate (Table III) ([3]; cocatalyst 8.0 mmole, 3.25 hr, 1.0 mmole catalyst, 4000 psi CO): 29%
% Selectivity to Methyl Acetate (Table III) ([3]; cocatalyst 16.0 mmole, 4.25 hr, 1.0 mmole catalyst, 4000 psi CO): 74%

[C-]#[O+].[C-]#[O+].[C-]#[O+].[C-]#[O+].[C-]#[O+].[C-]#[O+].[C-]#[O+].[C-]#[O+].[Co].[Co] [Co2 (CO)8]
% Conversion (Table II) [2, 16]: 3.5%
% Selectivity (Table II; additional product was dimethyl ether) [2, 16]: 6.4%

CC(=O)[CH-]C(C)=O.CC(=O)[CH-]C(C)=O.CC(=O)[CH-]C(C)=O.[Co+3] [Co(C5 H7 O2)3]
% Conversion (Table II) [2, 17]: 16%
% Selectivity (Table II; additional product was dimethyl ether) [2, 17]: 23%

I [HI]
% Conversion to Methyl Acetate (Table III) [2]: 8%
% Selectivity to Methyl Acetate (Table III) [2]: 47%
methyl acetate (drawing 17) [2]: 6.6 mL

[I-].[Li+] [LiI]
% Conversion to Methyl Acetate (Table III) [2]: 0.6%
% Selectivity to Methyl Acetate (Table III) [2]: 100%
methyl acetate (drawing 17) [2]: 1 mL

tetrakis tetrahydrofuran adduct of a magnesium-dicobalt hexacarbonyl bismethyldiphenylphosphine complex [(C4 H8 O)4 Mg[Co(CO)3 PCH3 (C6 H5)2]2]
hexene-1 converted to C7 aldehydes and C7 alcohols [4, 18]: 99%
reacted product that was an aldehyde [4, 18]: 87%
conversion of 1-hexene to heptaldehydes ([4]; elevated pressures): > 99%
selectivity, 1-hexene to heptaldehydes ([4]; elevated pressures): 87%
